Laboratory results taken from patent US12036222B2, “Methods of treating cancers overexpressing CARM1 with EZH2 inhibitors and a PARP inhibitor” (The Wistar Institut of Anatomy and Biology, priority 2018, dated 2024).
“Also recorded” adds a separate entry of the source.

How the values were obtained:
[1] = test system: A1847 parental and CARM1 knockout cells; test: Epigenetic targeting small molecule set screen (14-day colony formation); format: cell-based, human; details: 14 days, normalized to vehicle
Method: FIG. 26 illustrates that CARM1-expressing cells are selectively sensitized to EZH2 inhibitors. Equal number of parental control or CARM1 knockout […] cells were plated and treated with each of the 23 individual epigenetic inhibitors for 14 days. The media with the inhibitors was refreshed every 3 days. Cell growth was quantified as integrated density using NIH Image J software. Quantification of the average integrated density graphed as a scatter plot. The X-axis indicates the relative growth of treated CARM1 high parental […] cells compared with DMSO vehicle controls. Y-axis indicates the relative growth of treated CARM1 knockout […] cells compared with DMSO vehicle controls. n=4; and error bars represents SEM. FIG. 27 illustrates a table of EZH2 inhibitors that are selective against CARM1 expression. CARM1-high parental controls and CARM1 knockout […] cells were treated with the indicated concentration of the small molecules in a 14-day colony formation assay. Integrated density for each well was calculated using NIH Image J software. The relative growth of the indicated cells was determined by normalizing to the vehicle control treated cells. n=4 and p-value was calculated using a two-tailed t-test. […] parental and CARM1 knockout cells were plated in 24-well plates and treated with 24 epigenetic compounds. Cell medium was changed every three days with appropriate drug doses for 14 days or until control wells became confluent. Colonies were washed twice with PBS and fixed with 10% methanol and 10% acetic acid in distilled water. Fixed colonies were stained with 0.005% crystal violet. Integrated density was measured using NIH ImageJ software as a surrogate for cell growth.

[2] = test system: CARM1-expressing A1847 tumors; test: Subcutaneous xenograft model, CARM1-expressing A1847 cells; format: in vivo, NSG mice; details: 50 mg/kg daily i.p., three weeks
Method: (§1) The protocols were approved by the Institutional Animal Care and Use Committee (IACUC). 5×10^6 control A1847 or A1847 CARM1 knockout cells were unilaterally injected subcutaneously into 6-8-week old female immunocompromised NSG mice (n=5 per group). One week after injection the mice were randomized and treated with vehicle control (20% captisol) or GSK126 (50 mg/kg daily). Tumor size was measured every 3 days for 3 weeks. At end of the experiments, tumors were surgically dissected and tumor burden was calculated based on tumor weight.
(§2) EZH2 inhibitors, such as GSK126, are used safely in clinical trials for hematopoietic malignancies (Ribrag et al. Eur J Cancer (2014) 50:197). To determine the effects of EZH2 inhibition in vivo on the growth of CARM1-expressing ovarian tumors, two xenograft models were utilized. In the subcutaneous xenograft models, the injected CARM1-expressing A1847 cells were first allowed to grow for one week to establish the tumors. Mice were then randomized and treated daily with vehicle control or GSK126 (50 mg/kg) by intraperitioneal (i.p.) injection as reported (see, e.g., Bitler et al. Nature Medicine (2015) 21:231-8 and McCabe et al. Nature (2012) 492:108-12). […] To more closely mimic the tumor microenvironment, A1847 cells were orthotopically transplanted into the bursa covering the ovary of immunocompromised NSG mice. […]

[3] = clinical trials for hematopoietic malignancies; cited from earlier work
CARM1-depleted cells = test: Sensitization to Olaparib in CARM1-depleted cells; format: cell-based; details: data not shown
Text: Therefore, CARM1-expressing EOC can be treated and ultimately eradicated by combinatory targeting EZH2 and PARP using clinically applicable small molecule inhibitors.

[4] = test system: orthotopically-transplanted CARM1-expressing tumors; test: Intrabursal orthotopic xenograft model, CARM1-expressing A1847 cells; format: in vivo, NSG mice
Method: The protocols were approved by the Institutional Animal Care and Use Committee (IACUC). For in vivo experiments, the sample size of 5 mice per group was determined based on the data shown from in vitro experiments. Intrabursal orthotopic xenograft was performed as described in Bitler, et al. Nature Medicine (2015) 21:231-8 and Bitler et al. Cancer Research (2011) 71:6184-94. Briefly, 1×10^6 A1847 parental or A1847 CARM1 knockout cells were unilaterally injected into the ovarian bursa of 6-8-week old female immunocompromised NSG mice (n=5 per group). One week after injection the mice were randomized into two groups and treated with vehicle control (20% captisol) or GSK126 (50 mg/kg daily) for three weeks. At the end of the experiments, tumors were surgically dissected and tumor burden was calculated based on tumor weight. For survival experiments, after stopping the treatment, the mice were followed for mortality or when the tumor burden reached 10% of body weight as determined by The Wistar Institute IACUC guideline.
EZH2 inhibitors, such as GSK126, are used safely in clinical trials for hematopoietic malignancies (Ribrag et al. Eur J Cancer (2014) 50:197). To determine the effects of EZH2 inhibition in vivo on the growth of CARM1-expressing ovarian tumors, two xenograft models were utilized. […]

[5] = test system: tumors formed by CARM1 knockout A1847 cells; test: Subcutaneous xenograft model, CARM1 knockout A1847 cells; format: in vivo, NSG mice; details: 50 mg/kg daily i.p.
Method: as §1, §2

[6] = test system: CARM1-expressing cell lines (A1847, OVCAR10, and PEO4); test: Colony formation assay and GSK126 response curves in CARM1-expressing ovarian cancer cell lines; format: cell-based, human
Method: In FIG. 4, CARM1 expression in a panel of high-grade ovarian carcinomas is depicted. FIG. 5 illustrates the results of a colony formation assay with a panel of normal and ovarian cancer cell lines with DMSO and with 10 μM of the EZH2 inhibitor GSK126 (Formula (1)).
In FIG. 7, response curves for GSK126 in a panel of normal and ovarian cancer cell lines are shown.
500 to 5,000 cell were plated into a 24 well tissue culture plate and treated with the indicated compounds. Medium was changed every three days with appropriate drug doses for 12 days or until control wells became confluent. Colonies were washed twice with PBS and fixed with 10% methanol and 10% acetic acid in distilled water. Fixed colonies were stained with 0.005% crystal violet. Integrated density was measured using NIH ImageJ software.

In the case of `CC[C@H](C)n1cc(C)c2c(C(=O)NCc3c(C)cc(C)[nH]c3=O)cc(-c3ccc(N4CCNCC4)nc3)cc21` [GSK126, (S)-1-(sec-butyl)-N-((4,6-dimethyl-2-oxo-1,2-dihydropyridin-3-yl)methyl)-3-methyl-6-(6-(piperazin-1-yl)pyridin-3-yl)-1H-indole-4-carboxamide], the “selective growth suppression of CARM1-expressing vs CARM1 KO cells” value [1] is listed as “showed selectivity against CARM1-expressing cells; also recorded: selectively sensitive”, the “growth of CARM1-expressing tumors” value [2] is listed as “significantly inhibited the growth” and the “safety in clinical trials” value [3] is listed as “used safely; also recorded: proven safe; also recorded: well-tolerated with limited toxicity”. The “sensitization to Olaparib” value (CARM1-depleted cells) was “did not promote sensitization to Olaparib”, the “growth of CARM1-expressing tumors” value ([4]; 50 mg/kg daily i.p., three weeks) was “significantly inhibited” and the “survival of tumor bearing mice” value ([4]; followed after stopping treatment, vs controls) was “significantly improved the survival”. For the same molecule, the “growth of tumors formed by CARM1 knockout A1847 cells” value [5] was “failed to inhibit the growth”, the “sensitivity in colony formation assay” value ([6]; 10 μM GSK126 vs DMSO, panel of normal and ovarian cancer cell lines) was “particular sensitivity of CARM1-expressing cells” and the “IC50 values from GSK126 response curves” value ([6]; CARM1-expressing lines A1847, OVCAR10, PEO4 compared with rest of panel of normal and ovarian cancer cell lines, numbers only in FIG. 8) was “Significantly reduced IC50 values”. For the same molecule, the “correlation of cellular response with CARM1 expression levels” value ([6]; panel of EOC cell lines, 10 μM GSK126) was “correlation between CARM1 expression levels and cellular response to GSK126”.
